Where “and” joins values, the source holds several entries; their conditions need not be identical. Equal entries are not always repeated.
Key:
Type in all cases: in vivo, human
[1] = tested on: reasoning and planning of participants with Subjective Cognitive Decline; experiment: Cambridge Brain Sciences (CBS) Spatial Planning test
Source text: (§1) The Cambridge Brain Sciences (CBS) included a battery of four tests to measure various aspects of cognition and that affected different regions of the brain. Normal scores for each test ranged from 87 to 113.
The first test is the Spatial Planning test, which addresses reasoning and planning. It tests for non-Alzheimer's dementia but has a high correlation with aging. It has a high reproducibility and is useful to distinguish impaired and unimpaired populations. The parts of the brain implicated include: frontal lobe, mid-dorsolateral frontal cortex, caudate nucleus, thalamus, lateral premotor, and anterior cingulate.
(§2) The data are presented as mean±standard deviation (S.D.) at baseline, week 4, and week 8. Results from the Cognitive Failures Questionnaire and Cambridge Brain Sciences are compared using the Student's t-test in each intervention group between baseline and week 4 and between baseline and week 8. Significance was defined as p≤0.05. At each time point, the percentage change was compared with the values at baseline. This calculation was only obtained from the means between each time point, and the statistical analysis was not made on these percentage changes.
(§3) For Cambridge Brain Sciences tests, some responses were flagged as being a highly unusual response (found in less than 1% of Cambridge Brain Sciences normative database). […] These scores were considered to be invalid and excluded from the final analysis. For each participant, the combined mean scores of all four CBS tests were summed for at baseline and at week 8. The participants were then grouped according to these mean baseline score of all four tests as: below average (less than or equal to 100) and average and above (greater than 100).

[2] = tested on: concentration and response inhibition of participants with Subjective Cognitive Decline; experiment: Cambridge Brain Sciences (CBS) Double Trouble test; details: for Double Trouble actual score: Week 4, normal 87-113
Source text: as §1
The second test is Double Trouble and addresses concentration and response inhibition. It can detect early Alzheimer's disease and age-related cognitive decline. It has a high reproducibility and is useful in distinguishing impaired and unimpaired aging. The parts of the brain involved include the right prefrontal cortex and dorsolateral region.
as §2, §3

[3] = tested on: visuospatial and working memory of participants with Subjective Cognitive Decline; experiment: Cambridge Brain Sciences (CBS) Monkey Ladder test; details: for Monkey Ladder actual score: Week 4, normal 87-113
Source text: as §1
The third test is the Monkey Ladder, which relates visuospatial and working memory. The test can detect early Alzheimer's disease, non-Alzheimer's dementia, and age-related cognitive decline. The parts of the brain involved included: the mid-dorsolateral prefrontal cortex, premotor cortex, and posterior parietal cortex.
as §2, §3

[4] = tested on: cognitive function of participants with Subjective Cognitive Decline; experiment: Cambridge Brain Sciences (CBS) battery, combined means of all four tests
Source text: as §1, §3

[5] = one capsule daily (90 mg BCP), N=26
[6] = one capsule daily (90 mg BCP), Week 8, over 8 weeks
[7] = two capsules daily (180 mg BCP), N=25
[8] = one capsule daily (90 mg BCP), N=25
[9] = two capsules daily (180 mg BCP), N=22
[10] = two capsules daily (180 mg BCP)
[11] = one capsule daily (90 mg BCP), N=23
[12] = one capsule daily (90 mg BCP), all participants
[13] = one capsule daily (90 mg BCP), baseline mean greater than 100
[14] = one capsule daily (90 mg BCP), baseline mean less than or equal to 100
[15] = two capsules daily (180 mg BCP), all participants
[16] = two capsules daily (180 mg BCP), baseline mean greater than 100
[17] = two capsules daily (180 mg BCP), baseline mean less than or equal to 100

SMILES: C=C1CC/C=C(\C)CC[C@@H]2[C@@H]1CC2(C)C [BCP, beta-caryophyllene]
- Spatial Planning: % of participants with no change between baseline and week 8 [1, 5]: (8%)
- Spatial Planning: number of participants improved between baseline and week 8 [1, 5]: 19
- Spatial Planning: number of participants with no change between baseline and week 8 [1, 5]: 2
- Spatial Planning: number of participants worsened between baseline and week 8 [1, 5]: 5
- Spatial Planning actual score ([1]; one capsule daily (90 mg BCP), Week 4, normal 87-113): 104 ± 9
- Spatial Planning percentage change [1, 6]: +2.3%
- Spatial Planning: % of participants with no change between baseline and week 8 [1, 7]: (8%)
- Spatial Planning: number of participants improved between baseline and week 8 [1, 7]: 18
- Spatial Planning: number of participants with no change between baseline and week 8 [1, 7]: 2
- Spatial Planning: number of participants worsened between baseline and week 8 [1, 7]: 5
- Double Trouble: number of participants improved between baseline and week 8 [2, 8]: 15
- Double Trouble: number of participants with no change between baseline and week 8 [2, 8]: 0
- Double Trouble: number of participants worsened between baseline and week 8 [2, 8]: 9
- Double Trouble: % of participants with sub-optimal score ([2]; one capsule daily (90 mg BCP), week 8 (56% at baseline)): 44%
- Double Trouble actual score ([2]; one capsule daily (90 mg BCP)): 93 ± 15
- Double Trouble percentage change [2, 6]: +5.3%
- Double Trouble: % of participants with no change between baseline and week 8 [2, 9]: (14%)
- Double Trouble: number of participants improved between baseline and week 8 [2, 9]: 14
- Double Trouble: number of participants with no change between baseline and week 8 [2, 9]: 3
- Double Trouble: number of participants worsened between baseline and week 8 [2, 9]: 5
- Double Trouble actual score [2, 10]: 97.3 ± 15.2
- Monkey Ladder: % of participants with no change between baseline and week 8 [3, 11]: (4%)
- Monkey Ladder: number of participants improved between baseline and week 8 [3, 11]: 16
- Monkey Ladder: number of participants with no change between baseline and week 8 [3, 11]: 1
- Monkey Ladder: number of participants worsened between baseline and week 8 [3, 11]: 6
- Monkey Ladder actual score ([3]; one capsule daily (90 mg BCP)): 103.8 ± 6.7
- Monkey Ladder percentage change [3, 6]: +2.5%
- Monkey Ladder: % of participants with no change between baseline and week 8 [3, 7]: (28%)
- Monkey Ladder: number of participants improved between baseline and week 8 [3, 7]: 17
- Monkey Ladder: number of participants with no change between baseline and week 8 [3, 7]: 7
- Monkey Ladder: number of participants worsened between baseline and week 8 [3, 7]: 1
- Monkey Ladder actual score [3, 10]: 103.7 ± 8.1
- % of subjects with sub-optimal baseline score (less than 87) who improved to a normal score on any test ([4]; one capsule daily (90 mg BCP), during the 8-week study): 31%
- Mean of four tests scores at week 8 [4, 12]: 99.8
- Percentage change (mean ± S.D.) of mean of four tests scores, baseline to week 8 [4, 12]: 3.6±10.0%
- Mean of four tests scores at week 8 [4, 13]: 108.7
- Percentage change (mean ± S.D.) of mean of four tests scores, baseline to week 8 [4, 13]: −0.7±9.4%
- Mean of four tests scores at week 8 [4, 14]: 96.8
- Percentage change (mean ± S.D.) of mean of four tests scores, baseline to week 8 [4, 14]: 5.0±9.8% and 5%
- Mean of four tests scores at week 8 [4, 15]: 101.0
- Percentage change (mean ± S.D.) of mean of four tests scores, baseline to week 8 [4, 15]: 4.6±12.1%
- Mean of four tests scores at week 8 [4, 16]: 104.2
- Percentage change (mean ± S.D.) of mean of four tests scores, baseline to week 8 [4, 16]: −1.5% and −1.5 ± 7.5%
- Mean of four tests scores at week 8 [4, 17]: 98.8
- Percentage change (mean ± S.D.) of mean of four tests scores, baseline to week 8 [4, 17]: 9.0±12.9% and 9%

From US11911346B2, “Orally administrated therapeutic for treating mild cognitive impairment (MCI) and improving human cognitive function” (BrainCare LLC, priority 2021, dated 2024)
